Where only a bound is given, the exact number is not on record here.

This passage reports IC50 results from ChEMBL document CHEMBL5143762, “Novel Coronavirus Main Protease Di- and Tripeptide Inhibitors for Treating COVID-19” (ACS Med Chem Lett, 2022).

The test addresses Replicase polyprotein 1ab (Severe acute respiratory syndrome coronavirus 2, UniProt P0DTD1). Put plainly: Inhibition of recombinant SARS-CoV-2 Main protease using TAMRA-SITSAVLQSGFRKMK-DABCYL-OH fluorogenic peptide as substrate preincubated or 30 mins followed by substrate addition by FRET assay.
Take `CC(C)C(=O)N[C@H](C(=O)N1C[C@H]2[C@@H]([C@H]1C(=O)N[C@H](C#N)C[C@@H]1CCNC1=O)C2(C)C)C(C)(C)C`: the IC50 is less than 100 nM.

As to `CC(C)(C)[C@H](NC(=O)C1CCCCC1)C(=O)N1C[C@H]2[C@@H]([C@H]1C(=O)N[C@H](C#N)C[C@@H]1CCNC1=O)C2(C)C`, the IC50 is less than 100 nM.

For the molecule `CC(C)(C)C(=O)N[C@H](C(=O)N1C[C@H]2[C@@H]([C@H]1C(=O)N[C@H](C#N)C[C@@H]1CCNC1=O)C2(C)C)C(C)(C)C`, the IC50 is less than 100 nM.

For the molecule `CC1(C)[C@@H]2[C@@H](C(=O)N[C@H](C#N)C[C@@H]3CCNC3=O)N(C(=O)c3cc4c(OC(F)F)cccc4[nH]3)C[C@@H]21`, the IC50 stood at 100 nM.

`COc1cccc2[nH]c(C(=O)N3C[C@@H]4CCC[C@@H]4[C@H]3C(=O)N[C@@H](C[C@@H]3CCNC3=O)C(=O)CO)cc12`: the IC50 came to 100 nM.

Regarding `CC(=O)N[C@H](C(=O)N1C[C@H]2[C@@H]([C@H]1C(=O)N[C@H](C#N)C[C@@H]1CCNC1=O)C2(C)C)C(C)(C)C`, the IC50 was less than 100 nM.

With `COc1cccc2[nH]c(C(=O)N3C[C@@H]4CCC[C@@H]4[C@H]3C(=O)N[C@H](C=O)C[C@@H]3CCNC3=O)cc12`, the IC50 was less than 100 nM.

With `CCC(=O)N[C@H](C(=O)N1C[C@H]2[C@@H]([C@H]1C(=O)N[C@H](C#N)C[C@@H]1CCNC1=O)C2(C)C)C(C)(C)C`, the IC50 is less than 100 nM.

Consider `N#C[C@H](C[C@@H]1CCNC1=O)NC(=O)[C@@H]1CCCN1C(=O)c1cc2c(OC(F)F)cccc2[nH]1`, for which the IC50 is greater than 1000 nM.

Take `COc1cccc2[nH]c(C(=O)N3C[C@@H]4CCC[C@@H]4[C@H]3C(=O)N[C@@H](C[C@@H]3CCNC3=O)C(=O)COC(=O)c3c(Cl)cccc3Cl)cc12`: the IC50 is less than 100 nM.

Take `CC(C)(C)[C@H](NC(=O)Cc1ccccc1)C(=O)N1C[C@H]2[C@@H]([C@H]1C(=O)N[C@H](C#N)C[C@@H]1CCNC1=O)C2(C)C`: the IC50 is less than 100 nM.

For the molecule `COc1cccc2[nH]c(C(=O)N3C[C@@H]4CCC[C@@H]4[C@H]3C(=O)N[C@@H](C[C@@H]3CCNC3=O)C(=O)CCl)cc12`, the IC50 was found to be 100 nM.

On to `COc1cccc2[nH]c(C(=O)N3C[C@@H]4CCC[C@@H]4[C@H]3C(=O)N[C@@H](C[C@@H]3CCNC3=O)C(=O)C(=O)NC3CCCCC3)cc12`, for which the concentration for half-maximal inhibition (IC50) is less than 100 nM.
